According to ChEMBL document CHEMBL1134968, “Prodrug and covalent linker strategies for the solubilization of dual-action antioxidants/iron chelators” (Bioorg Med Chem Lett, 2002):
In brackets after ≈: the same amount, converted by molar mass.

Assay: Compound was tested for its solubility in DMSO/H2O in a ratio of (1:9)
Format: ADME
Conditions: DMSO/H2O (1:9); read-out: S

solubility [µg/mL] | Structure (SMILES)
10000 | Cc1c(O)c(=O)ccn1CCNCc1cc(C(C)(C)C)c(O)c(C(C)(C)C)c1

Assay: Compound was tested for its solubility in water
Format: ADME
Conditions: read-out: S

solubility [µg/mL] | Structure (SMILES)
< 100 | Cc1c(OC(=O)c2ccc(N)cc2)c(=O)ccn1CCCc1cc(C(C)(C)C)c(O)c(C(C)(C)C)c1
< 100 | Cc1c(O)c(=O)ccn1CCOCCOCCOCCOCCCc1cc(C(C)(C)C)c(O)c(C(C)(C)C)c1
< 100 | Cc1c(O)c(=O)ccn1CCOCCOCCOCCOCCOCCCc1cc(C(C)(C)C)c(O)c(C(C)(C)C)c1
< 100 | Cc1c(O)c(=O)ccn1CCCc1cc(C(C)(C)C)c(O)c(C(C)(C)C)c1
< 100 | CC(=O)Oc1c(C)n(CCCc2cc(C(C)(C)C)c(O)c(C(C)(C)C)c2)ccc1=O
> 20000 | Cc1c(OC(=O)CCN)c(=O)ccn1CCCc1cc(C(C)(C)C)c(O)c(C(C)(C)C)c1
< 100 | Cc1c(C)c2c(c(C)c1O)CCC(C)(CNCCCCn1ccc(=O)c(O)c1C)O2 (stereo not given)

Continued, compound first:

Structure (SMILES) | solubility [µg/mL]
Cc1c(C)c2c(c(C)c1OC(=O)CN(C)C)CC(CCn1ccc(=O)c(O)c1C)O2 (stereo not given) | > 20000
Cc1c(C)c2c(c(C)c1O)CC(CCn1ccc(=O)c(O)c1C)O2 (stereo not given) | < 100
CNCC(=O)Oc1c(C)c(C)c2c(c1C)CC(CCn1ccc(=O)c(O)c1C)O2 (stereo not given) | > 20000
Cc1c(C)c2c(c(C)c1OC(=O)CCN)CC(CCn1ccc(=O)c(O)c1C)O2 (stereo not given) | 10000 (≈ 25 mM)
Cc1c(C)c2c(c(C)c1OC(=O)c1ccc(N)cc1)CC(CCn1ccc(=O)c(O)c1C)O2 (stereo not given) | < 100
Cc1c(C)c2c(c(C)c1OC(=O)CCCN)CC(CCn1ccc(=O)c(O)c1C)O2 (stereo not given) | 10000 (≈ 24.1 mM)
Cc1c(C)c2c(c(C)c1OC(=O)C(N)C(C)C)CC(CCn1ccc(=O)c(O)c1C)O2 (stereo not given) | > 20000
